Patent publication US20090142715A1, “LAMINATED RESIST USED FOR IMMERSION LITHOGRAPHY” (DAIKIN INDUSTRIES LTD., priority 2004, published 2009)
Read-outs that look alike come from different tables or passages of the source.

Test: Measurement of pKa value of monomer having hydrophilic functional group Y by NaOH titration
Type: physicochemical
Settings: titration in water/acetone with NaOH, corrected by blank
Description: The method of measuring and calculating a pKa value is mentioned below using 1,1-bistrifluoromethyl-3-buten-1-ol:
In a water/acetone solution of 10/15 ml was poured 0.7865 g of CH2═CHCH2C(CF3)2OH, followed by stirring at room temperature. After it was confirmed that the solution was homogeneous, titration was carried out with 0.2 mole/L NaOH solution. A titration curve was obtained by adding the NaOH solution dropwise in increments of 0.15 ml and recording a pH value at every addition. An equivalence point was determined by an inflection point (maximum differential value of titration curve=dpH/dml) of the titration curve. In this case, the equivalence point was 14.5 ml. […] From a titration curve of water/acetone solution and aqueous solution which had been measured previously as a blank solution, a difference in a pH value derived from an electric potential difference between the solutions at titration of 7.25 ml was 1.29.
In the case of titration of 1.0865 g of CH2═CHCH2C(CF3)2OH by the same procedures as above, an equivalence point was 20.15 ml and a half of the equivalence point was 10.08 ml. A pH value at a half of the equivalence point was 10.78.
When the same procedures as above were carried out by changing the titration solution to about 0.05 mole/L NaOH, an equivalence point of 0.115 g of CH2═CHCH2C(CF3)2OH was 8.00 ml and a half of the equivalence point was 4.00 ml. A pH value at this time was 10.92.
With respect to the various fluorine-containing ethylenic monomers having OH group shown in Table 2, a pKa value was measured by the same procedures as above.

[1] = water/acetone solution, read-out: pKa

| Compound | pKa [1] | pKa |
| --- | --- | --- |
| O=C(O)C1(F)CC2C=CC1C2 (centres unmarked) | 3.8 |  |
| 1,1,9,9-tetrahydro-2,5-bistrifluoromethyl-3,6-dioxa-8-nonenol |  | 12.6 |
| C=CCC(O)(C(F)(F)F)C(F)(F)F [1,1-bistrifluoromethyl-3-buten-1-ol] |  | 9.6 |
| C=C(F)C(=O)O [CH2═CF—COOH, α-fluoroacrylic acid] | 3.4 |  |
| C=C(F)C(F)(F)OC(F)(C(F)(F)F)C(F)(F)OC(F)(C(=O)O)C(F)(F)F (centres unmarked) [perfluoro-(9,9-dihydro-2,5-bistrifluoromethyl-3,6-dioxa-8-nonenoic acid)] |  | 3.6 |
